Laboratory results: US20100267561A1, “HERBICIDAL PYRIDAZINONE DERIVATIVES” (priority 2007, published 2010)
Where two headings read alike, the source gives them in different places.

How the values were obtained:
Type in all cases: in vivo
[1] = system: canarygrass (Phalaris minor); assay: Test B postemergence plant response; settings: for Plant response rating, Canarygrass: Postemergence
Summary of the method: (§1)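 Test compounds were applied postemergence to plants 2 to 18 cm tall (1- to 4-leaf stage). After 13 to 15 days in a greenhouse, each species was visually compared with untreated controls and rated 0 (no effect) to 100 (complete control).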

[2] = system: chickweed (Stellaria media); assay: Test B postemergence plant response; settings: for Plant response rating, Chickweed: Postemergence
Summary of the method: as §1

[3] = system: winter barley (Hordeum vulgare); assay: Test B postemergence plant response; settings: for Plant response rating, Barley: Postemergence, scale 0 to 100, 0 no effect, 100 complete control
Summary of the method: as §1

[4] = system: windgrass (Apera spica-venti); assay: Test B postemergence plant response; settings: for Windgrass plant response rating: postemergence, 0-100 scale; for Plant response rating, Windgrass: Postemergence
Summary of the method: as §1

[5] = system: Italian ryegrass (Lolium multiflorum); assay: Test B pre-/postemergence plant response; settings: for pest or weed control at 31 g/ha / pest or weed control at 62 g/ha: Lolium multiflorum, read-out: Plant response rating, Ryegrass, Italian; for pest or weed control at 31 g/ha: 31 g ai/ha; for pest or weed control at 62 g/ha: 62 g ai/ha, 100 complete control
Summary of the method: (§2)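 Seeds were sown and sprayed preemergence, while plants at 2 to 18 cm (1- to 4-leaf stage) got postemergence sprays. Compounds were formulated in a non-phytotoxic solvent mixture with surfactant. After 13 to 15 days in a greenhouse, injury was rated visually against untreated controls, 0 (no effect) to 100 (complete control).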

[6] = system: morningglory (Ipomoea coccinea); assay: Test B pre-/postemergence plant response; settings: for pest or weed control at 31 g/ha / pest or weed control at 62 g/ha: Ipomoea, read-out: Plant response rating, Morningglory; for pest or weed control at 31 g/ha: 31 g ai/ha; for pest or weed control at 62 g/ha: 62 g ai/ha, 100 complete control
Summary of the method: as §2

[7] = system: surinam grass (Brachiaria decumbens); assay: Test B pre-/postemergence plant response; settings: for pest or weed control at 31 g/ha / pest or weed control at 62 g/ha: Urochloa decumbens, read-out: Plant response rating, Surinam Grass; for pest or weed control at 31 g/ha: 31 g ai/ha; for pest or weed control at 62 g/ha: 62 g ai/ha, 100 complete control
Summary of the method: as §2

[8] = system: wheat (Triticum aestivum); assay: Test B pre-/postemergence plant response; settings: for plant injury at 31 g/ha / plant injury at 62 g/ha: Triticum aestivum, read-out: Plant response rating, Wheat; for plant injury at 31 g/ha: 31 g ai/ha; for plant injury at 62 g/ha: 62 g ai/ha, 100 complete control
Summary of the method: as §2

[9] = system: giant foxtail (Setaria faberii); assay: Test B pre-/postemergence plant response; settings: for pest or weed control at 31 g/ha: 31 g ai/ha; for pest or weed control at 62 g/ha: 62 g ai/ha, 100 complete control
Summary of the method: as §2

[10] = system: bermudagrass (Cynodon dactylon); assay: Test B pre-/postemergence plant response; settings: for pest or weed control at 31 g/ha: 31 g ai/ha; for pest or weed control at 62 g/ha: 62 g ai/ha, 100 complete control
Summary of the method: as §2

[11] = system: soybean (Glycine max); assay: Test B pre-/postemergence plant response; settings: for plant injury at 31 g/ha / plant injury at 62 g/ha: Glycine max, read-out: Plant response rating, Soybean; for plant injury at 31 g/ha: 31 g ai/ha; for plant injury at 62 g/ha: 62 g ai/ha, 100 complete control
Summary of the method: as §2

[12] = system: common (oilseed) sunflower (Helianthus annuus); assay: Test B pre-/postemergence plant response; settings: Preemergence; for Sunflower plant response rating: scale 0 to 100
Summary of the method: as §2

[13] = system: downy bromegrass (Bromus tectorum); assay: Test B pre-/postemergence plant response; settings: for pest or weed control at 31 g/ha: 31 g ai/ha; for pest or weed control at 62 g/ha: 62 g ai/ha, 100 complete control
Summary of the method: as §2

[14] = system: pigweed (Amaranthus retroflexus); assay: Test B pre-/postemergence plant response; settings: for pest or weed control at 31 g/ha / pest or weed control at 62 g/ha: Amaranthus retroflexus, read-out: Plant response rating, Pigweed; for pest or weed control at 31 g/ha: 31 g ai/ha; for pest or weed control at 62 g/ha: 62 g ai/ha, 100 complete control
Summary of the method: as §2

[15] = system: lambsquarters (Chenopodium album); assay: Test B pre-/postemergence plant response; settings: for pest or weed control at 31 g/ha / pest or weed control at 62 g/ha: Chenopodium album, read-out: Plant response rating, Lambsquarters; for pest or weed control at 31 g/ha: 31 g ai/ha; for pest or weed control at 62 g/ha: 62 g ai/ha, 100 complete control
Summary of the method: as §2

[16] = 8 g ai/ha, postemergence, 0-100 scale
[17] = 62 g ai/ha, scale 0 to 100, 0 no effect, 100 complete control
[18] = 16 g ai/ha, postemergence, 0-100 scale
[19] = post-emergence, Postemergence, scale 0 to 100
[20] = post-emergence, Postemergence, scale 0 to 100, 0 no effect
[21] = pre-emergence, Preemergence, scale 0 to 100 (0 no effect, 100 complete control)
[22] = pre-emergence, Preemergence, 0 to 100 scale, 0 no effect
[23] = Preemergence, 8 g ai/ha, scale 0 to 100
[24] = Preemergence, 16 g ai/ha, scale 0 to 100

Cc1nn(C)c(=O)c(-n2nc(-c3ccc(C(F)(F)F)cc3)cc2C)c1O [Compound 75, 5-hydroxy-2,6-dimethyl-4-[5-methyl-3-[4-(trifluoromethyl)phenyl]-1H-pyrazol-1-yl]-3(2H)-pyridazinone]
85%: pest or weed control at 62 g/ha [7, 20] | plant injury at 62 g/ha [8, 20] | pest or weed control at 62 g/ha ([9]; Setaria faberi, post-emergence, Postemergence, scale 0 to 100, 0 no effect, read-out: Plant response rating, Foxtail, Giant) | pest or weed control at 31 g/ha ([10]; Cynodon dactylon, post-emergence, Postemergence, scale 0 to 100, read-out: Plant response rating, Bermudagrass)
60: Plant response rating, Barley ([3]; 62 g ai/ha) | Surinam Grass plant response rating [7, 16]
65%: pest or weed control at 31 g/ha ([10]; Cynodon dactylon, pre-emergence, Preemergence, scale 0 to 100 (0 no effect, 100 complete control), read-out: Plant response rating, Bermudagrass)
95%: pest or weed control at 31 g/ha [5, 19] | pest or weed control at 62 g/ha ([9]; Setaria faberi, pre-emergence, Preemergence, 0 to 100 scale, 0 no effect, read-out: Plant response rating, Foxtail, Giant)
80%: pest or weed control at 31 g/ha [7, 21] | pest or weed control at 31 g/ha ([9]; Setaria faberi, post-emergence, Postemergence, scale 0 to 100, read-out: Plant response rating, Foxtail, Giant) | pest or weed control at 16 g/ha ([10]; Cynodon dactylon, post-emergence, Postemergence, 16 g ai/ha, scale 0 to 100, read-out: Plant response rating, Bermudagrass) | pest or weed control at 62 g/ha ([13]; Bromus tectorum, pre-emergence, Preemergence, 0 to 100 scale, 0 no effect, read-out: Plant response rating, Bromegrass, Downy)
70%: plant injury at 31 g/ha [8, 19] | pest or weed control at 16 g/ha ([9]; Setaria faberi, post-emergence, Postemergence, 16 g ai/ha, scale 0 to 100, read-out: Plant response rating, Foxtail, Giant)
0%: pest or weed control at 31 g/ha [6, 19] | pest or weed control at 62 g/ha [6, 20] | pest or weed control at 31 g/ha [6, 21] | pest or weed control at 62 g/ha [6, 22] | plant injury at 31 g/ha [11, 19] | plant injury at 62 g/ha [11, 20] | plant injury at 31 g/ha [11, 21] | plant injury at 62 g/ha [11, 22] | pest or weed control at 31 g/ha ([12]; Helianthus annuus, pre-emergence, 31 g ai/ha, scale 0 to 100 (0 no effect, 100 complete control), read-out: Plant response rating, Sunflower) | pest or weed control at 62 g/ha ([12]; Helianthus annuus, pre-emergence, 62 g ai/ha, 0 to 100 scale, 0 no effect, 100 complete control, read-out: Plant response rating, Sunflower) | pest or weed control at 31 g/ha [14, 19] | pest or weed control at 62 g/ha [14, 20] | pest or weed control at 31 g/ha [14, 21] | pest or weed control at 62 g/ha [14, 22] | pest or weed control at 31 g/ha [15, 19] | pest or weed control at 62 g/ha [15, 20] | pest or weed control at 31 g/ha [15, 21] | pest or weed control at 62 g/ha [15, 22]
65: Bermudagrass plant response rating [10, 16]
50%: pest or weed control at 31 g/ha ([9]; Setaria faberi, pre-emergence, Preemergence, scale 0 to 100 (0 no effect, 100 complete control), read-out: Plant response rating, Foxtail, Giant) | pest or weed control at 62 g/ha ([13]; Bromus tectorum, post-emergence, Postemergence, scale 0 to 100, 0 no effect, read-out: Plant response rating, Bromegrass, Downy) | pest or weed control at 31 g/ha ([13]; Bromus tectorum, pre-emergence, Preemergence, scale 0 to 100 (0 no effect, 100 complete control), read-out: Plant response rating, Bromegrass, Downy)
45%: plant injury at 62 g/ha [8, 22]
75%: pest or weed control at 31 g/ha [7, 19]
90%: pest or weed control at 62 g/ha ([10]; Cynodon dactylon, post-emergence, Postemergence, scale 0 to 100, 0 no effect, read-out: Plant response rating, Bermudagrass)
10%: pest or weed control at 16 g/ha ([13]; Bromus tectorum, post-emergence, Postemergence, 16 g ai/ha, scale 0 to 100, read-out: Plant response rating, Bromegrass, Downy)
20%: plant injury at 31 g/ha [8, 21]
70: Plant response rating, Windgrass ([4]; 31 g ai/ha, scale 0 to 100) | Surinam Grass plant response rating [7, 18]
0: Canarygrass plant response rating [1, 16] | Plant response rating, Canarygrass ([1]; 16 g ai/ha, scale 0 to 100) | Plant response rating, Canarygrass ([1]; 31 g ai/ha, scale 0 to 100) | Chickweed plant response rating [2, 16] | Plant response rating, Chickweed ([2]; 16 g ai/ha, scale 0 to 100) | Plant response rating, Chickweed ([2]; 31 g ai/ha, scale 0 to 100) | Plant response rating, Chickweed [2, 17] | Barley plant response rating [3, 16] | Plant response rating, Barley ([3]; 16 g ai/ha) | Ryegrass, Italian plant response rating [5, 23] | Morningglory plant response rating [6, 16] | Morningglory plant response rating [6, 18] | Morningglory plant response rating [6, 23] | Morningglory plant response rating [6, 24] | Wheat plant response rating [8, 16] | Wheat plant response rating [8, 24] | Foxtail, Giant plant response rating [9, 23] | Foxtail, Giant plant response rating [9, 24] | Bermudagrass plant response rating ([10]; Preemergence, 16 g ai/ha, scale 0 to 100 (0 no effect, 100 complete control)) | Soybean plant response rating [11, 16] | Soybean plant response rating [11, 18] | Soybean plant response rating [11, 23] | Soybean plant response rating [11, 24] | Sunflower plant response rating ([12]; 8 g ai/ha) | Sunflower plant response rating ([12]; 16 g ai/ha) | Bromegrass, Downy plant response rating [13, 16] | Bromegrass, Downy plant response rating [13, 23] | Pigweed plant response rating [14, 16] | Pigweed plant response rating [14, 18] | Pigweed plant response rating [14, 23] | Pigweed plant response rating [14, 24] | Lambsquarters plant response rating [15, 16] | Lambsquarters plant response rating [15, 18] | Lambsquarters plant response rating [15, 23] | Lambsquarters plant response rating [15, 24]
20: Wheat plant response rating [8, 18] | Bromegrass, Downy plant response rating [13, 24]
98%: pest or weed control at 62 g/ha [5, 20] | pest or weed control at 31 g/ha [5, 21] | pest or weed control at 62 g/ha [5, 22] | pest or weed control at 62 g/ha [7, 22] | pest or weed control at 62 g/ha ([10]; Cynodon dactylon, pre-emergence, Preemergence, 0 to 100 scale, 0 no effect, read-out: Plant response rating, Bermudagrass)
30: Ryegrass, Italian plant response rating [5, 16] | Ryegrass, Italian plant response rating [5, 24]
10: Windgrass plant response rating ([4]; 8 g ai/ha)
15: Plant response rating, Barley ([3]; 31 g ai/ha)
30%: pest or weed control at 31 g/ha ([13]; Bromus tectorum, post-emergence, Postemergence, scale 0 to 100, read-out: Plant response rating, Bromegrass, Downy)
50: Plant response rating, Canarygrass [1, 17] | Windgrass plant response rating ([4]; 16 g ai/ha) | Ryegrass, Italian plant response rating [5, 18] | Surinam Grass plant response rating [7, 24] | Foxtail, Giant plant response rating [9, 16]
90: Plant response rating, Windgrass [4, 17]
45: Surinam Grass plant response rating [7, 23]
